Experiments:
[1] = tested on: ALOMY; test: Pre-emergence action against ALOMY; assay type: in vivo, Alopecurus myosuroides; conditions: dosage 320 g/ha; pre-emergence; scored visually after 3 weeks vs untreated controls; 100% = plants have died, 0% = like control plants
Method in brief: (§1)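 Seeds sown in sandy loam in wood-fiber pots and covered with soil. Greenhouse growth; visual damage scored after 3 weeks versus untreated controls (100% = dead, 0% = like control).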

[2] = tested on: AVEFA; test: Pre-emergence action against AVEFA; assay type: in vivo, Avena fatua; conditions: dosage 320 g/ha, scored visually after 3 weeks vs untreated controls
Method in brief: as §1

[3] = tested on: CYPES; test: Pre-emergence action against CYPES; assay type: in vivo, Cyperus esculentus; conditions: pre-emergence, dosage 320 g/ha, scored visually after 3 weeks vs untreated controls
Method in brief: as §1

[4] = tested on: ECHCG; test: Pre-emergence action against ECHCG; assay type: in vivo, Echinochloa crus-galli; conditions: pre-emergence, dosage 320 g/ha, scored visually after 3 weeks vs untreated controls
Method in brief: as §1

[5] = tested on: LOLRI; test: Pre-emergence action against LOLRI; assay type: in vivo, Lolium rigidum; conditions: dosage 320 g/ha, scored visually after 3 weeks vs untreated controls
Method in brief: as §1

[6] = tested on: SETVI; test: Pre-emergence action against SETVI; assay type: in vivo, Setaria viridis; conditions: pre-emergence, dosage 320 g/ha, scored visually after 3 weeks vs untreated controls
Method in brief: as §1

[7] = tested on: ABUTH; test: Pre-emergence action against ABUTH; assay type: in vivo, Abutilon theophrasti; conditions: pre-emergence, dosage 320 g/ha, scored visually after 3 weeks vs untreated controls
Method in brief: as §1

[8] = tested on: AMARE; test: Pre-emergence action against AMARE; assay type: in vivo, Amaranthus retroflexus; conditions: pre-emergence, dosage 320 g/ha, scored visually after 3 weeks vs untreated controls
Method in brief: as §1

[9] = tested on: MATIN; test: Pre-emergence action against MATIN; assay type: in vivo, Matricaria inodora; conditions: Dosage 320 g/ha, pre-emergence
Method in brief: as §1

[10] = tested on: PHBPU; test: Pre-emergence action against PHBPU; assay type: in vivo, Pharbitis purpurea; conditions: Dosage 320 g/ha, pre-emergence
Method in brief: as §1

[11] = tested on: POLCO; test: Pre-emergence action against POLCO; assay type: in vivo, Polygonum convolvulus; conditions: Dosage 320 g/ha, pre-emergence
Method in brief: as §1

[12] = tested on: STEME; test: Pre-emergence action against STEME; assay type: in vivo, Stellaria media; conditions: Dosage 320 g/ha, pre-emergence
Method in brief: as §1

[13] = tested on: VIOTR; test: Pre-emergence action against VIOTR; assay type: in vivo, Viola tricolor; conditions: Dosage 320 g/ha, pre-emergence
Method in brief: as §1

[14] = tested on: VERPE; test: Pre-emergence action against VERPE; assay type: in vivo, Veronica persica; conditions: Dosage 320 g/ha, pre-emergence
Method in brief: as §1

[15] = tested on: HORMU; test: Pre-emergence action against HORMU; assay type: in vivo, Hordeum murinum; conditions: Dosage 320 g/ha
Method in brief: as §1

[16] = tested on: CYPES; test: Post-emergence action against CYPES; assay type: in vivo, Cyperus esculentus; conditions: post-emergence, dosage 80 g/ha, visual assessment about 3 weeks after treatment vs untreated controls
Method in brief: (§2)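 Post-emergence foliar spray on greenhouse plants at the one-leaf stage, using wettable-powder or emulsion-concentrate formulations in water (600 to […], plus 0.2% wetting agent). Damage scored by eye roughly 3 weeks later against untreated plants: 0% = like control, 100% = dead.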

[17] = tested on: ECHCG; test: Post-emergence action against ECHCG; assay type: in vivo, Echinochloa crus-galli; conditions: post-emergence, dosage 80 g/ha, visual assessment about 3 weeks after treatment vs untreated controls
Method in brief: as §2

[18] = tested on: LOLRI; test: Post-emergence action against LOLRI; assay type: in vivo, Lolium rigidum; conditions: dosage 80 g/ha, visual assessment about 3 weeks after treatment vs untreated controls
Experimental: (§3) Seeds of monocotyledonous and dicotyledonous weed and crop plants are laid out in sandy loam soil in wood-fiber pots, covered with soil and cultivated in a greenhouse under good growth conditions. 2 to 3 weeks after sowing, the test plants are treated at the one-leaf stage. The compounds of the invention, formulated in the form of wettable powders (WP) or as emulsion concentrates (EC), are then sprayed onto the green parts of the plants in the form of an aqueous suspension or emulsion at a water application rate equating to […], with addition of 0.2% wetting agent. After the test plants have been left to stand in the greenhouse under optimal growth conditions for about 3 weeks, the action of the preparations is assessed visually in comparison to untreated controls (herbicidal action in percent (%): 100% activity=the plants have died, 0% activity=like control plants). […] At the same time, inventive compounds leave Gramineae crops such as barley, wheat, rye, millet/Sorghum, corn or rice virtually undamaged when applied post-emergence, even at high active ingredient dosages. In addition, some substances are also harmless to dicotyledonous crops such as soya, cotton, oilseed rape, sugar beet or potatoes. Some of the compounds according to the invention have high selectivity and are therefore suitable for controlling unwanted vegetation in agricultural crops by the post-emergence method. The data of Tables B18 to B34 below illustrate, in an exemplary manner, the […] herbicidal action of the compounds according to the invention, the herbicidal activity being stated in percent.

[19] = tested on: SETVI; test: Post-emergence action against SETVI; assay type: in vivo, Setaria viridis; conditions: post-emergence, dosage 80 g/ha, visual assessment about 3 weeks after treatment vs untreated controls
Method in brief: as §2

[20] = tested on: ABUTH; test: Post-emergence action against ABUTH; assay type: in vivo, Abutilon theophrasti; conditions: post-emergence, dosage 80 g/ha, visual assessment about 3 weeks after treatment vs untreated controls
Method in brief: as §2

[21] = tested on: AMARE; test: Post-emergence action against AMARE; assay type: in vivo, Amaranthus retroflexus; conditions: post-emergence, dosage 80 g/ha, visual assessment about 3 weeks after treatment vs untreated controls
Method in brief: as §2

[22] = tested on: MATIN; test: Post-emergence action against MATIN; assay type: in vivo, Matricaria inodora; conditions: post-emergence, dosage 80 g/ha, visual assessment about 3 weeks after treatment vs untreated controls
Method in brief: as §2

[23] = tested on: PHBPU; test: Post-emergence action against PHBPU; assay type: in vivo, Pharbitis purpurea; conditions: post-emergence, dosage 80 g/ha
Method in brief: as §2

[24] = tested on: POLCO; test: Post-emergence action against POLCO; assay type: in vivo, Polygonum convolvulus; conditions: post-emergence, dosage 80 g/ha
Method in brief: as §2

[25] = tested on: STEME; test: Post-emergence action against STEME; assay type: in vivo, Stellaria media; conditions: post-emergence, dosage 80 g/ha
Method in brief: as §2

[26] = tested on: VIOTR; test: Post-emergence action against VIOTR; assay type: in vivo, Viola tricolor; conditions: post-emergence, dosage 80 g/ha
Method in brief: as §2

[27] = tested on: VERPE; test: Post-emergence action against VERPE; assay type: in vivo, Veronica persica; conditions: dosage 80 g/ha
Method in brief: as §2

[28] = tested on: HORMU; test: Post-emergence action against HORMU; assay type: in vivo, Hordeum murinum; conditions: dosage 80 g/ha
Experimental: as §3

[29] = tested on: LOLMU; test: Pre-emergence action against LOLMU; assay type: in vivo, Lolium multiflorum; conditions: dosage 320 g/ha, scored visually after 3 weeks vs untreated controls
Method in brief: as §1

[30] = tested on: ALOMY; test: Post-emergence action against ALOMY; assay type: in vivo, Alopecurus myosuroides; conditions: Dosage 80 g/ha, post-emergence
Method in brief: as §2

[31] = tested on: AVEFA; test: Post-emergence action against AVEFA; assay type: in vivo, Avena fatua; conditions: post-emergence, dosage 80 g/ha, visual assessment about 3 weeks after treatment vs untreated controls
Method in brief: as §2

[32] = tested on: LOLMU; test: Post-emergence action against LOLMU; assay type: in vivo, Lolium multiflorum; conditions: dosage 80 g/ha, visual assessment about 3 weeks after treatment vs untreated controls
Method in brief: as §2

Compound | Pre-emergence action against ALOMY (herbicidal activity in percent) [1] [%] | Pre-emergence action against AVEFA (herbicidal activity) [2] [%] | Pre-emergence action against CYPES (herbicidal activity) [3] [%] | Pre-emergence action against ECHCG (herbicidal activity) [4] [%] | SETVI (Table B8, pre-emergence herbicidal activity) [6] [%] | Pre-emergence action against ABUTH (herbicidal activity) [7] [%] | Pre-emergence action against AMARE (herbicidal activity) [8] [%] | Pre-emergence action against MATIN [9] [%] | Pre-emergence action against PHBPU [10] [%] | Pre-emergence action against POLCO [11] [%] | Pre-emergence action against STEME [12] [%] | Pre-emergence action against VIOTR [13] [%] | Pre-emergence action against VERPE [14] [%] | Post-emergence action against CYPES (herbicidal action in percent) [16] [%] | Post-emergence action against ECHCG (herbicidal action in percent) [17] [%] | Post-emergence action against SETVI (herbicidal action in percent) [19] [%] | Post-emergence action against ABUTH (herbicidal action in percent) [20] [%] | Post-emergence action against AMARE (herbicidal action in percent) [21] [%] | Post-emergence action against MATIN (herbicidal action in percent) [22] [%] | Post-emergence action against PHBPU [23] | further results
CCCn1nnnc1NC(=O)c1ccc(C(F)F)c(C(=O)C2CC2)c1SC [3-67] | 100 | 100 | 100 | 100 | 100 | 100 | 100 | 100 | 100 | 90 | 90 | 100 | 100 | 80 | 100 | 100 | 100 | 100 | 100 | 100 | Pre-emergence action against LOLRI (herbicidal activity) [5]: 100%; Pre-emergence action against HORMU [15]: 100%; Post-emergence action against LOLRI (herbicidal action in percent) [18]: 80%; Post-emergence action against POLCO [24]: 80; Post-emergence action against STEME [25]: 100; Post-emergence action against VIOTR [26]: 100; Post-emergence action against VERPE [27]: 80; Post-emergence action against HORMU [28]: 80
CCn1nnnc1NC(=O)c1ccc(Cl)c(C(=O)C2CC2)c1Cl [2-116] | 100 | 90 | 90 | 100 | 100 | 100 | 100 | 100 | 90 | 90 | 90 | 100 | 100 | 80 | 90 | 90 | 80 | 90 | 90 | 100 | Pre-emergence action against LOLMU (herbicidal activity) [29]: 100%; Post-emergence action against ALOMY [30]: 80%; Post-emergence action against AVEFA (herbicidal action in percent) [31]: 90%; Post-emergence action against LOLMU (herbicidal action in percent) [32]: 90%; Post-emergence action against POLCO [24]: 90; Post-emergence action against STEME [25]: 90; Post-emergence action against VIOTR [26]: 100; Post-emergence action against VERPE [27]: 90
